Measured values: US11078197B2, “5-membered and bicyclic heterocyclic amides as inhibitors of rock” (BRISTOL-MYERS SQUIBB COMPANY, priority 2017, dated 2021)
Like-named read-outs stand apart in the source and are kept apart here.

Experiments:
ROCK2 = ROCK2 (Homo sapiens (Human), UniProt O75116); experiment: ROCK2 assay (peptide phosphorylation, LABCHIP 3000 Reader); format: biochemical; conditions: 5 μM ATP, 1.5 μM peptide substrate, dose-response
Description: After incubation, the reaction was terminated by the addition of EDTA and the phosphorylated and non-phosphorylated peptides separated using a LABCHIP®3000 Reader (Caliper Life Sciences). […] Compounds were tested in dose-response format, and the inhibition of kinase activity was calculated at each concentration of compound. […] Representative Examples were tested in the ROCK2 assay described above and found having ROCK2 inhibitory activity.

[1] = tested on: spontaneously hypertensive rat, renal hypertensive rat and deoxycortisone acetate salt hypertensive rat models; conditions: cited from earlier work
[2] = tested on: neointimal formation in rats; conditions: cited from earlier work
Dahl salt-sensitive rats = conditions: congestive heart failure; cited from earlier work
[3] = tested on: porcine model of IL-1 beta-induced coronary stenosis; conditions: long term treatment; cited from earlier work
rat stroke model = conditions: cited from earlier work

Sequence of ROCK2 (O75116 whole entry, species assumed): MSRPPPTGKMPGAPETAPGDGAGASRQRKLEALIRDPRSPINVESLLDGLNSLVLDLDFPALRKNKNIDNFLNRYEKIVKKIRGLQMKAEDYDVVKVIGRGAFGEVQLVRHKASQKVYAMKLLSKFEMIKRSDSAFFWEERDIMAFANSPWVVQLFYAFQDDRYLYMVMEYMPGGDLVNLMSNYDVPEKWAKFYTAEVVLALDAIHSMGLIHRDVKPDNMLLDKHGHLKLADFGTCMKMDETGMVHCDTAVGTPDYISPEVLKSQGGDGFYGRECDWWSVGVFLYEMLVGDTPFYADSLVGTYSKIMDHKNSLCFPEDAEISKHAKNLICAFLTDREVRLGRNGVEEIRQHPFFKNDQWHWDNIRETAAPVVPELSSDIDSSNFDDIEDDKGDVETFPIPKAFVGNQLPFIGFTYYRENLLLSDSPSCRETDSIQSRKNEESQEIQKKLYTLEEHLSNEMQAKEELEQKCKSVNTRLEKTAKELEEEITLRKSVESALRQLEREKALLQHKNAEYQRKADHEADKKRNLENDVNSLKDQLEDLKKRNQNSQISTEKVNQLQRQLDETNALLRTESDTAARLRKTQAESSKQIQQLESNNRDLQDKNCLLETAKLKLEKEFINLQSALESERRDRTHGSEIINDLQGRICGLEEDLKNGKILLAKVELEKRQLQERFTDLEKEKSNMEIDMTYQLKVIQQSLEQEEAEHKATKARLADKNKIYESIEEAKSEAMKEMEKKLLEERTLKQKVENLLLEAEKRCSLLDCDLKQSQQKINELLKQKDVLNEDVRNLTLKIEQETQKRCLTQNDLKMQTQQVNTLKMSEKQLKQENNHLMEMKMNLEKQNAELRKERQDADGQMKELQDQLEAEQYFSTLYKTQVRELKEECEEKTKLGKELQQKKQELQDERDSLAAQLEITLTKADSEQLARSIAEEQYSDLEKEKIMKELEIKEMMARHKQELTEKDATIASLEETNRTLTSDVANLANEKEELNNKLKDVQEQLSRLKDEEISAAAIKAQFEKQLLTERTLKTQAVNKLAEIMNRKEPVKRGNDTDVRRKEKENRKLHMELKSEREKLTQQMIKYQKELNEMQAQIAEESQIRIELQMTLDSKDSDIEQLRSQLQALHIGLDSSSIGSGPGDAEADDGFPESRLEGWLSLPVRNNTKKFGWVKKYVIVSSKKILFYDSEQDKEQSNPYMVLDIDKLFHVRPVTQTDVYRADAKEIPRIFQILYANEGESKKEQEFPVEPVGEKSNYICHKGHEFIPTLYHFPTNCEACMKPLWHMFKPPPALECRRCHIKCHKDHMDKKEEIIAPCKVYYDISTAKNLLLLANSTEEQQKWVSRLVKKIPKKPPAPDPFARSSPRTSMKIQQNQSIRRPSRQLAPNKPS

IC50 (ROCK2) | Compound | other results
2.9 nM | Cn1ncc2cc(C(N)=O)c(O[C@H]3C[C@@]4(C[C@H](NC(=O)c5cnn6c(C7CC7)c(OCC(C)(C)O)ccc56)C4)C3)nc21 (stereo partly drawn) [Example 147, 7-cyclopropyl-6-(2-hydroxy-2-methylpropoxy)-N-[(4s)-6-({5-carbamoyl-1-methyl-1H-pyrazolo[3,4-b]pyridin-6-yl}oxy)spiro[3.3]heptan-2-yl]pyrazolo[1,5-a]pyridine-3-carboxamide] | –
52.7 nM | Cn1ncc2cc(C(N)=O)c(O[C@H]3C[C@@]4(C[C@H](NC(=O)c5cccc(CO)n5)C4)C3)nc21 (stereo partly drawn) [Example 148, 6-(hydroxymethyl)-N-[(4s)-6-({5-carbamoyl-1-methyl-1H-pyrazolo[3,4-b]pyridin-6-yl}oxy)spiro[3.3]heptan-2-yl]pyridine-2-carboxamide] | –
14.5 nM | Cn1ncc2cc(C(N)=O)c(O[C@H]3C[C@@]4(C[C@H](NC(=O)c5nnc(-c6ccc(C(F)(F)F)cc6)s5)C4)C3)nc21 (stereo partly drawn) [Example 149, N-[(4s)-6-({5-carbamoyl-1-methyl-1H-pyrazolo[3,4-b]pyridin-6-yl}oxy)spiro[3.3]heptan-2-yl]-5-[4-(trifluoromethyl)phenyl]-1,3,4-thiadiazole-2-carboxamide] | –
13.6 nM | Cn1ncc2cc(C(N)=O)c(O[C@H]3C[C@@]4(C[C@H](NC(=O)c5nnc(-c6ccc(F)cc6F)s5)C4)C3)nc21 (stereo partly drawn) [Example 151, 5-(2,4-difluorophenyl)-N-[(4s)-6-({5-carbamoyl-1-methyl-1H-pyrazolo[3,4-b]pyridin-6-yl}oxy)spiro[3.3]heptan-2-yl]-1,3,4-thiadiazole-2-carboxamide] | –
6.3 nM | Cc1c(C(=O)N[C@H]2C[C@]3(C2)C[C@H](Oc2nc4c(cnn4C)cc2C(N)=O)C3)cnn1-c1ccc(C#N)cc1 (stereo partly drawn) [Example 152, 1-(4-cyanophenyl)-5-methyl-N-[(4s)-6-({5-carbamoyl-1-methyl-1H-pyrazolo[3,4-b]pyridin-6-yl}oxy)spiro[3.3]heptan-2-yl]-1H-pyrazole-4-carboxamide] | –
2.3 nM | Cn1ncc2cc(C(N)=O)c(O[C@H]3C[C@@]4(C[C@H](NC(=O)c5cc(-c6ccc(S(C)(=O)=O)cc6)n(C(F)F)n5)C4)C3)nc21 (stereo partly drawn) [Example 154, 1-(difluoromethyl)-5-(4-methanesulfonylphenyl)-N-[(4s)-6-({5-carbamoyl-1-methyl-1H-pyrazolo[3,4-b]pyridin-6-yl}oxy)spiro[3.3]heptan-2-yl]-1H-pyrazole-3-carboxamide] | –
2.7 nM | Cn1ncc2cc(C(N)=O)c(O[C@H]3C[C@@]4(C[C@H](NC(=O)c5cc(-c6ccc(C#N)cc6)n(C(F)F)n5)C4)C3)nc21 (stereo partly drawn) [Example 155, 5-(4-cyanophenyl)-1-(difluoromethyl)-N-[(4s)-6-({5-carbamoyl-1-methyl-1H-pyrazolo[3,4-b]pyridin-6-yl}oxy)spiro[3.3]heptan-2-yl]-1H-pyrazole-3-carboxamide] | –
4.3 nM | Cn1ncc2cc(C(N)=O)c(O[C@H]3C[C@@]4(C[C@H](NC(=O)c5nnc(-c6cccc(S(C)(=O)=O)c6)s5)C4)C3)nc21 (stereo partly drawn) [Example 156, 5-(3-methanesulfonylphenyl)-N-[(4s)-6-({5-carbamoyl-1-methyl-1H-pyrazolo[3,4-b]pyridin-6-yl}oxy)spiro[3.3]heptan-2-yl]-1,3,4-thiadiazole-2-carboxamide] | –
10.9 nM | Cn1ncc2cc(C(N)=O)c(O[C@H]3C[C@@]4(C[C@H](NC(=O)c5cnc6c(cnn6CC(F)F)c5)C4)C3)nc21 (stereo partly drawn) [Example 157, 1-methyl-6-{[(4s)-6-[1-(2,2-difluoroethyl)-1H-pyrazolo[3,4-b]pyridine-5-amido]spiro[3.3]heptan-2-yl]oxy}-1H-pyrazolo[3,4-b]pyridine-5-carboxamide] | –
4.6 nM | Cc1c(C(=O)N[C@H]2C[C@]3(C2)C[C@H](Oc2nc4c(cnn4C)cc2C(N)=O)C3)cnn1-c1ccc(-c2cnn(CC(F)F)c2)cc1 (stereo partly drawn) [Example 158, 1-{4-[1-(2,2-difluoroethyl)-1H-pyrazol-4-yl]phenyl}-5-methyl-N-[(4s)-6-({5-carbamoyl-1-methyl-1H-pyrazolo[3,4-b]pyridin-6-yl}oxy)spiro[3.3]heptan-2-yl]-1H-pyrazole-4-carboxamide] | –

Second part, the compound before the results:

Compound | IC50 (ROCK2) | other results
Cc1nc(NCC(C)C)sc1C(=O)N[C@H]1C[C@]2(C1)C[C@H](Oc1nc3c(cc1C(N)=O)COCC3)C2 (stereo partly drawn) [Example 145, 4-methyl-2-[(2-methylpropyl)amino]-N-[(4s)-6-({3-carbamoyl-5H,7H,8H-pyrano[4,3-b]pyridin-2-yl}oxy)spiro[3.3]heptan-2-yl]-1,3-thiazole-5-carboxamide] | 111 nM | –
Cc1c(C(=O)N[C@H]2C[C@]3(C2)C[C@H](Oc2nc4c(cnn4C)cc2C(N)=O)C3)cnn1-c1ccc(S(C)(=O)=O)cc1 (stereo partly drawn) [Example 150, 1-(4-methanesulfonylphenyl)-5-methyl-N-[(4s)-6-({5-carbamoyl-1-methyl-1H-pyrazolo[3,4-b]pyridin-6-yl}oxy)spiro[3.3]heptan-2-yl]-1H-pyrazole-4-carboxamide] | 7.1 nM | –
Cc1c(C(=O)N[C@H]2C[C@]3(C2)C[C@H](Oc2nc4c(cnn4C)cc2C(N)=O)C3)cnn1-c1ccc(-c2cnn(C)c2)cc1 (stereo partly drawn) [Example 153, 5-methyl-1-[4-(1-methyl-1H-pyrazol-4-yl)phenyl]-N-[(4s)-6-({5-carbamoyl-1-methyl-1H-pyrazolo[3,4-b]pyridin-6-yl}oxy)spiro[3.3]heptan-2-yl]-1H-pyrazole-4-carboxamide] | 0.8 nM | –
Cn1ncc2cc(C(N)=O)c(O[C@H]3C[C@@]4(C[C@H](NC(=O)c5nn(CC(F)F)c6cc(OCC(C)(C)O)ccc56)C4)C3)nc21 (stereo partly drawn) [Example 159, 1-(2,2-difluoroethyl)-6-(2-hydroxy-2-methylpropoxy)-N-[(4s)-6-({5-carbamoyl-1-methyl-1H-pyrazolo[3,4-b]pyridin-6-yl}oxy)spiro[3.3]heptan-2-yl]-1H-indazole-3-carboxamide] | 1.1 nM | –
Cn1ncc2cc(C(N)=O)c(O[C@H]3C[C@@]4(C[C@H](NC(=O)c5nn(CC(F)F)c6cc(OCC(C)(C)F)ccc56)C4)C3)nc21 (stereo partly drawn) [Example 160, 1-(2,2-difluoroethyl)-6-(2-fluoro-2-methylpropoxy)-N-[(4s)-6-({5-carbamoyl-1-methyl-1H-pyrazolo[3,4-b]pyridin-6-yl}oxy)spiro[3.3]heptan-2-yl]-1H-indazole-3-carboxamide] | 1.6 nM | –
Cc1sc2cc(C(N)=O)c(O[C@H]3C[C@@]4(C[C@H](NC(=O)c5cnn(-c6ccc(F)cc6F)c5C)C4)C3)nc2c1C (stereo partly drawn) [Example 161, 1-(2,4-difluorophenyl)-5-methyl-N-[(4s)-6-({6-carbamoyl-2,3-dimethylthieno[3,2-b]pyridin-5-yl}oxy)spiro[3.3]heptan-2-yl]-1H-pyrazole-4-carboxamide] | 223 nM | –
Cc1sc2cc(C(N)=O)c(O[C@H]3CC4(C[C@H](NC(=O)c5nnc(NCC(C)C)s5)C4)C3)nc2c1C (stereo partly drawn) [Example 162, 5-[(2-methylpropyl)amino]-N-[(4s)-6-({6-carbamoyl-2,3-dimethylthieno[3,2-b]pyridin-5-yl}oxy)spiro[3.3]heptan-2-yl]-1,3,4-thiadiazole-2-carboxamide] | 162 nM | –
C[C@@H](N)[C@H]1CC[C@H](C(=O)Nc2ccncc2)CC1 [Example Y-27632, Y-27632] | – | blood pressure ([1]; control rats): only a minor effect on blood pressure; blood pressure ([1]; three rat models of hypertension): significantly decrease blood pressure; neointimal formation [2]: inhibited neointimal formation; ventricular hypertrophy, fibrosis and function (Dahl salt-sensitive rats): improve ventricular hypertrophy, fibrosis and function
O=S(=O)(c1cccc2cnccc12)N1CCCNCC1 [fasudil] | – | coronary constrictive remodeling [3]: promote a regression of coronary constrictive remodeling; coronary stenosis [3]: progressively reduce coronary stenosis; infarct size and neurologic deficit (rat stroke model): reduce both the infarct size and neurologic deficit
